In patent US8748496B2, “Methods of treatment of hyperuricemia and associated disease states” (Elan Pharmaceuticals, Inc., priority 2008, dated 2014):
Entries after “also recorded” stand apart in the source; their conditions may differ.

Test system: serum uric acid levels
Experiment: Phase 1 open-label multiple dosing study, serum uric acid in healthy adult subjects
Assay type: in vivo, human
Details: 2000 mg BID oral 10 days; for uric acid, Mean: N=8
Description: A Phase 1 single site, open-label multiple dosing study evaluating a scyllo-inositol formulation was conducted in healthy adult subjects. Approximately 8 healthy male subjects received 2000 mg of scyllo-inositol twice daily (4-500 mg tablets orally administered twice a day) for 10 days. Blood samples were collected 12 hours prior to the first dose (day 0) and on days 6, 14, and 21. Scyllo-inositol 500 mg capsules were BSE/TSE-free soft gelatin, white, opaque capsules and no excipients were used in the finished product. Capsules were supplied in 60-mL, oblong, white pharmaceutical high density polyethylene (HDPE) bottles with white caps. Each 60-mL bottle contained 30 capsules of 500 mg strength scyllo-inositol.

[1] = Baseline (Day 0, before first dose)

SMILES: O[C@H]1[C@H](O)[C@@H](O)[C@H](O)[C@@H](O)[C@@H]1O [scyllo-inositol, 1,2,3,4,5,6-cyclohexanehexyl, (1alpha,2beta,3alpha,4beta,5alpha,6beta)]
- uric acid, Max [1]: 375 micromole per liter
- uric acid, Median [1]: 300.4 micromole per liter
- uric acid, Min [1]: 256 micromole per liter
- uric acid, Mean [1]: 305.6 micromole per liter
- uric acid, Max (Day 6): 250 micromole per liter
- uric acid, Max Change from Baseline (Day 6): −12 micromole per liter
- uric acid, Mean Change from Baseline (Day 6): −88.8 micromole per liter
- uric acid, Median (Day 6): 226.0 micromole per liter
- uric acid, Median Change from Baseline (Day 6): −72.6 micromole per liter
- uric acid, Min (Day 6): 155 micromole per liter
- uric acid, Min Change from Baseline (Day 6): −172 micromole per liter
- uric acid, Mean (Day 6): 216.8 micromole per liter
- uric acid, Max (Day 14): 274 micromole per liter
- uric acid, Max Change from Baseline (Day 14): −12 micromole per liter
- uric acid, Mean Change from Baseline (Day 14): −70.6 micromole per liter
- uric acid, Median (Day 14): 237.9 micromole per liter
- uric acid, Median Change from Baseline (Day 14): −74.4 micromole per liter
- uric acid, Min (Day 14): 196 micromole per liter
- uric acid, Min Change from Baseline (Day 14): −131 micromole per liter
- uric acid, Mean (Day 14): 243.9 micromole per liter
- uric acid, Max (Day 21): 333 micromole per liter
- uric acid, Max Change from Baseline (Day 21): 65 micromole per liter
- uric acid, Mean Change from Baseline (Day 21): −16.4 micromole per liter
- uric acid, Median (Day 21): 291.5 micromole per liter
- uric acid, Median Change from Baseline (Day 21): −23.8 micromole per liter
- uric acid, Min (Day 21): 250 micromole per liter
- uric acid, Min Change from Baseline (Day 21): −83 micromole per liter
- uric acid after the end of treatment (Day 21, last follow-up visit): returned to Day 0 values by Day 21
- uric acid, Mean (Day 21): 289.2 micromole per liter
- serum uric acid levels following the start of treatment (all 8 subjects): decreased in all subjects; also recorded: a decrease in serum uric acid levels was observed in all subjects
- mean uric acid levels versus normal range (during the study): remained within the normal range
